According to US20230203041A1, “ANTAGONISTS OF THE ADENOSINE A2A RECEPTOR” (AdoRx Therapeutics Limited, priority 2020, published 2023):

Columns and labels:
[1] = tested on: CD8+ T cells in human whole blood; assay: Measurement of pCREB in CD8+ T cells in human whole blood; type: cell-based; settings: T-cell, 1 h; heparinised human whole blood, rolipram, 3 μM NECA, 60 min, phospho-CREB in CD8+ T cells by FACS
Procedure, shortened: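 Heparinised human whole blood preincubated 20 min at 37 °C with serially diluted A2a antagonists plus rolipram, then stimulated 60 min with 3 μM NECA (final). After fixation and RBC lysis, permeabilized leukocytes stained for phospho-CREB and CD8; pCREB in CD8+ T cells read by flow cytometry.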

[2] = biological target: T1, human Adenosine A2b receptor (Homo sapiens, UniProt P29275); assay: Adenosine receptor TR-FRET binding assay (CA200645 displacement), A2b; settings: 30 nM CA200645, CHO cell membranes, 2 hours at room temperature
T1 construct: expressed in transfected cells; host or cells: CHO cell membranes
T1 sequence (P29275 1-332): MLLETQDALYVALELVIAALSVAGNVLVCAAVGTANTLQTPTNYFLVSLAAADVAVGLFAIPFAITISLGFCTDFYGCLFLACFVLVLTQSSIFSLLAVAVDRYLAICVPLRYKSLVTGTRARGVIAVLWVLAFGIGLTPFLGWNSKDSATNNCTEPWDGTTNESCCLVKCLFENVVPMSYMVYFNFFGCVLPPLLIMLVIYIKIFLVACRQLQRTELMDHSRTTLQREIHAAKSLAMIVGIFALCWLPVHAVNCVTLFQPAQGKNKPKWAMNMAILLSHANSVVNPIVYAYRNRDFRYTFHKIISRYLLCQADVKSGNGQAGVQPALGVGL

[3] = biological target: T2, human Adenosine A1 receptor (Homo sapiens, UniProt P30542); assay: Adenosine receptor TR-FRET binding assay (CA200645 displacement), A1
T2 sequence (P30542 1-326): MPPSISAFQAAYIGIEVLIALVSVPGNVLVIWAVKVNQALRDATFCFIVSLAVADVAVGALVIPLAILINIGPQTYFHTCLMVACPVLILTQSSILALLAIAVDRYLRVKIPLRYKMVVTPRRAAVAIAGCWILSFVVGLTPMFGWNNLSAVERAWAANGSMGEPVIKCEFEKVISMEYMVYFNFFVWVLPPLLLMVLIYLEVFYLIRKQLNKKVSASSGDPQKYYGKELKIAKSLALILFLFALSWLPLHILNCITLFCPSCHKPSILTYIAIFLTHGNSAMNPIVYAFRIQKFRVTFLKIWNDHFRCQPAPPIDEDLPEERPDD

[4] = biological target: T3, human Adenosine A2a receptor (Homo sapiens, UniProt P29274); assay: Adenosine receptor TR-FRET binding assay (CA200645 displacement), A2a; settings: 100 nM CA200645, CHO cell membranes, 2 hours at room temperature
T3 construct: expressed in transfected cells; host or cells: CHO cell membranes
Method: All FRET binding experiments were conducted at room temperature in white 384-well plates, in assay binding buffer containing 1×LabMed (Cisbio, France), 100 μg/mL saponin, 1% DMSO and 0.02% pluronic acid. Binding of the fluorescently labelled Adenosine receptor antagonist XAC (CA200645, FRET acceptor) to terbium-labelled A1, A2a, A2b and A3 adenosine receptors (FRET donors) was detected by time-resolved FRET due to the close proximity of the donor and acceptor in a binding event. To investigate the ability of unlabelled test compounds to bind to Adenosine A1, A2a, A2b and A3 receptors, dose response curves were constructed that determined the ability of a range of concentrations to inhibit the binding of 30 nM CA200645 to the A2b receptor and 100 nM CA200645 to the A1, A2a, and A3 receptor.
Serial dilution (1:3 dilutions) of test compounds in neat DMSO and transfer of a 400 nL sample of test compound into the assay plate was carried out using the Mosquito (TTP Labtech, UK). The compound samples were incubated for 2 hours at room temperature with a fixed concentration of CA200645 defined for each receptor (see above) and CHO cell membranes containing the human Adenosine A1 (0.5 μg/well), A2a (0.3 μg/well), A2b (1 μg/well) or A3 (1 μg/well) receptor in 40 μL of assay buffer. Total and non-specific binding of CA200645 was determined in the absence and presence of 10 μM XAC, respectively. Following 2 hours incubation, the level of CA200645 binding was detected on a Pherastar FSX (BMG Labtech, Germany) using standard TR-FRET settings. The terbium donor was excited with three laser flashes at a wavelength of 337 nm, and donor and acceptor emission was detected at 620 nm and 665 nm wavelengths, respectively. FRET ratios were obtained by multiplying the acceptor/donor ratio value by 10,000. Specific binding was determined by subtracting the non-specific binding FRET ratio from the total binding FRET ratio. Compound IC50 curves were analysed using GraphPad Prism 7.0 (GraphPad, USA) and Ki affinity values were determined from the obtained IC50 values using the method of Cheng and Prusoff.

human PBMCs = assay: CD3/CD28 stimulated IL-2 release NECA reversal assay in human PBMCs; type: cell-based; settings: PBMC, CD3/CD28 antibody stimulated, 1 uM NECA, 24 hours, IL-2 in culture supernatant;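 note: dose-response as % inhibition where 100% equals no-NECA control wells with CD3/CD28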
Procedure, shortened: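 PBMCs from citrated donor blood, 50,000 cells/well on plate-bound CD3 antibody (1 ug/ml), with 1 ug/ml CD28 antibody, 1 uM NECA and antagonist at 0.003-10 μM final. After 24 h at 37° C, supernatant IL-2 was measured by MSD immunoassay.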

[5] = biological target: T4, human Adenosine A3 receptor (Homo sapiens, UniProt P0DMS8); assay: Adenosine receptor TR-FRET binding assay (CA200645 displacement), A3
T4 sequence (P0DMS8 1-318): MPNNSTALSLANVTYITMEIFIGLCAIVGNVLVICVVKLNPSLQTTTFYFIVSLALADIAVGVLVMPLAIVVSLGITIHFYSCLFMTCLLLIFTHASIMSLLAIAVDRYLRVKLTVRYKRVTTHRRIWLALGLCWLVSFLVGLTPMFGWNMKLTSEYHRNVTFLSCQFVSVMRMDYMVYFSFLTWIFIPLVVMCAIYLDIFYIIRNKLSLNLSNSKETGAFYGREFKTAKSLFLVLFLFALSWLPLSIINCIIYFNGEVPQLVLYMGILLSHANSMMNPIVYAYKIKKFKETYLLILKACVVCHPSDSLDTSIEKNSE

T3 sequence (P29274 whole entry): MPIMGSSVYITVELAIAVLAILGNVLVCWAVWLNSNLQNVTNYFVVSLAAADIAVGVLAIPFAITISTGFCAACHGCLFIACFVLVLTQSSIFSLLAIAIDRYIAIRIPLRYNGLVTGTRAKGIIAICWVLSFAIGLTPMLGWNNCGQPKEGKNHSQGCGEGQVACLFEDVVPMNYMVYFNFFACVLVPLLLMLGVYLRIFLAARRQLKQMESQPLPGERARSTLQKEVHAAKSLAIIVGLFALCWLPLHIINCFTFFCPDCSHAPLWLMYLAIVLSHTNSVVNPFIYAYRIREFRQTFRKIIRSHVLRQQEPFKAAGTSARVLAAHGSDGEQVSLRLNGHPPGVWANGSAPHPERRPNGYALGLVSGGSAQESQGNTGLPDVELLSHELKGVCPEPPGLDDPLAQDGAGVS

Row | SMILES | IC50 [1] [nM] | Ki [2] [nM] | Ki [3] [nM] | Ki [4] [nM] | IC50 (human PBMCs) [nM] | Ki [5] [nM]
1 | Cc1cc(-c2c(-c3cccc(C#N)c3)nn3ccc(C(=O)NCC(C)(C)O)nc23)ccn1 [Example 12.2, 2-(3-Cyanophenyl)-N-(2-hydroxy-2-methyl-propyl)-3-(2-methyl-4-pyridyl)pyrazolo[1,5-a]pyrimidine-5-carboxamide] | 520 | 21 | 5 | 2.9 | 22 | 56
2 | Cc1cc(-c2c(-c3cccc(C#N)c3)nn3ccc(C(=O)NCC(C)(C)O)nc23)cc(C(F)F)n1 [Example 12.4, 2-(3-Cyanophenyl)-3-[2-(difluoromethyl)-6-methyl-4-pyridyl]-N-(2-hydroxy-2-methyl-propyl)pyrazolo[1,5-a]pyrimidine-5-carboxamide] | 150 | 12 | 148 | 0.1 | 4 | 1550
3 | COc1cc(-c2c(-c3cccc(C#N)c3)nn3ccc(C(=O)NCC(C)(C)O)nc23)cc(C)n1 [Example 12.6, 2-(3-Cyanophenyl)-N-(2-hydroxy-2-methyl-propyl)-3-(2-methoxy-6-methyl-4-pyridyl)pyrazolo[1,5-a]pyrimidine-5-carboxamide] | 370 | 75 | 251 | 1 | 9 | 690
4 | Cc1cc(-c2c(-c3cccc(C#N)c3)nn3ccc(C(=O)NCC(C)(C)O)nc23)cc(C#N)n1 [Example 12.8, 3-(2-Cyano-6-methyl-4-pyridyl)-2-(3-cyanophenyl)-N-(2-hydroxy-2-methyl-propyl)pyrazolo[1,5-a]pyrimidine-5-carboxamide] | 350 | 177 | 575 | 3.4 | 35 | > 1000
5 | Cc1cc(-c2c(-c3cccc(C#N)c3)nn3ccc(C(=O)NCC(C)(C)O)nc23)cc(C(F)(F)F)n1 [Example 12.9, 2-(3-Cyanophenyl)-N-(2-hydroxy-2-methyl-propyl)-3-[2-methyl-6-(trifluoromethyl)-4-pyridyl]pyrazolo[1,5-a]pyrimidine-5-carboxamide] | 80 | 6 | 47 | 0.1 | 2 | 860
6 | Cc1cc(-c2c(-c3cccc(C#N)c3)nn3ccc(OCC(C)(C)O)nc23)cc(Cl)n1 [Example 15, 3-[3-(2-Chloro-6-methyl-4-pyridyl)-5-(2-hydroxy-2-methyl-propoxy)pyrazolo[1,5-a]pyrimidin-2-yl]benzonitrile] | 380 | 9 | 46 | 1.2 | 2 | 1920
7 | Cc1cc(-c2c(-c3cccc(C#N)c3)nn3ccc(NC(=N)N)nc23)cc(Cl)n1 [Example 16.1, 1-[3-(2-Chloro-6-methyl-4-pyridyl)-2-(3-cyanophenyl)pyrazolo[1,5-a]pyrimidin-5-yl]guanidine] | 1050 | 8 | 116 | 1.4 | 77 | 2600
8 | Cc1cc(-c2c(-c3cccc(C#N)c3)nn3ccc(NCC(C)(C)O)nc23)cc(C(F)F)n1 [Example 23, 3-[3-[2-(Difluoromethyl)-6-methyl-4-pyridyl]-5-[(2-hydroxy-2-methyl-propyl)amino]pyrazolo[1,5-a]pyrimidin-2-yl]benzonitrile] | 390 | 53 | 42 | 0.6 | 20 | > 1000
9 | COc1cc(-c2c(-c3cccc(C#N)c3)nn3ccc(NCC(C)(C)O)nc23)cc(C)n1 [Example 23.1] | 1010 | 143 | 147 | 1.3 | 83 | > 1000
10 | Cc1cc(-c2c(-c3cccc(C#N)c3)nn3ccc(NCC(C)(C)O)nc23)cc(C)n1 [Example 23.2] | 260 | 168 | 280 | 1.9 | 25 | > 1000
11 | Cc1cc(-c2c(-c3cccc(C#N)c3)nn3ccc(OC4CCNCC4)nc23)cc(Cl)n1 [Example 24, 3-[3-(2-Chloro-6-methyl-4-pyridyl)-5-(4-piperidyloxy)pyrazolo[1,5-a]pyrimidin-2-yl]benzonitrile] | 3630 | 16 | 216 | 0.6 | 51 | > 1000
12 | Cc1cc(-c2c(-c3cccc(C#N)c3)nn3ccc(N)nc23)cc(C(F)F)n1 [Example 26.1, 3-[5-Amino-3-[2-(difluoromethyl)-6-methyl-4-pyridyl]pyrazolo[1,5-a]pyrimidin-2-yl]benzonitrile] | 460 | 2 | 17 | 1.5 | 32 | 2360
13 | COc1cc(-c2c(-c3cccc(C#N)c3)nn3ccc(N)nc23)cc(C)n1 [Example 26.2, 3-[5-Amino-3-(2-methoxy-6-methyl-4-pyridyl)pyrazolo[1,5-a]pyrimidin-2-yl]benzonitrile] | 2540 | 18 | 123 | 6.2 | 69 | 2520
14 | Cc1cc(-c2c(-c3cccc(C#N)c3)nn3ccc(N)nc23)cc(N)n1 [Example 27.1, 3-[5-Amino-3-(2-amino-6-methyl-4-pyridyl)pyrazolo[1,5-a]pyrimidin-2-yl]benzonitrile] | 740 | 43 | 62 | 9.2 | 36 | > 1000
15 | Cc1cc(-c2c(-c3cccc(C#N)c3)nn3ccc(NC(N)=O)nc23)cc(Cl)n1 [Example 30, [3-(2-Chloro-6-methyl-4-pyridyl)-2-(3-cyanophenyl)pyrazolo[1,5-a]pyrimidin-5-yl]urea] | 640 | 5 | 57 | 0.8 | 21 | > 1000
16 | Cc1cc(-c2c(-c3cccc(C#N)c3)nn3ccc(NC(N)=O)nc23)cc(C)n1 [Example 30.3, [2-(3-Cyanophenyl)-3-(2,6-dimethyl-4-pyridyl)pyrazolo[1,5-a]pyrimidin-5-yl]urea] | 120 | 14 | 47 | 1.8 | 50 | > 1000
17 | Cc1cc(-c2c(-c3cccc(C#N)c3)nn3ccc(N/C(=N\C#N)NC(C)C)nc23)cc(Cl)n1 [Example 32.1, 1-[3-(2-Chloro-6-methyl-4-pyridyl)-2-(3-cyanophenyl)pyrazolo[1,5-a]pyrimidin-5-yl]-2-cyano-3-isopropyl-guanidine] | 1180 | 1 | 10 | 0.2 | 9 | 115
18 | Cc1cc(-c2c(-c3cccc(C#N)c3)nn3ccc(N/C(=N\C#N)NCC(C)(C)O)nc23)cc(Cl)n1 [Example 32.2, 1-[3-(2-Chloro-6-methyl-4-pyridyl)-2-(3-cyanophenyl)pyrazolo[1,5-a]pyrimidin-5-yl]-2-cyano-3-(2-hydroxy-2-methyl-propyl)quanidine] | 490 | 5 | 29 | 0.8 | 16 | > 1000
19 | Cc1cccnc1CNc1ccn2nc(-c3ccco3)c(C#N)c2n1 [Example 37, 2-(2-Furyl)-5-[(3-methyl-2-pyridyl)methylamino]pyrazolo[1,5-a]pyrimidine-3-carbonitrile] | 1460 | 22 | 5 | 0.3 | 13 | 186
